According to US20240082373A1, “COMPOSITIONS FOR CHIMERIC ANTIGEN RECEPTOR T CELL THERAPY AND USES THEREOF” (priority 2017, published 2024):

Assays:
FITC-CAR-T = FITC-CAR-T proliferation in lymph nodes after vaccination (CTV-labeled cells); assay type: in vivo, C57Bl/6 mice; details: adjuvant alone, 25 ug
Procedure: To assess whether DSPE-PEG-FITC accumulating on lymph node antigen presenting cells would lead to CAR T cell priming and how long this stimulatory effect would last for, at day 1, mice were administered PBS, c-di-GMP (25 ug), DSPE-PEG-FITC (10 nmol), or DSPE-PEG-FITC (10 nmol)+c-di-GMP (25 ug) into wildtype C57Bl/6 mice. After various time points, as indicated in the timeline in FIG. 7A, 2×10^6 CTV-labeled CAR-T cells were transferred into each mouse via tail-vein injection. CAR-T cells were titrated to be a mixture of CAR+ and CAR-cells at 1:1 ratio. After another 48 hours, mice were sacrificed and LNs were removed for FACS analysis.

[1] = Trafficking to and retention in lymph nodes (IVIS imaging); assay type: in vivo, mice; details: free FITC control
Procedure: Based on the results of Example 2, it was next determined whether the amphiphilic ligand conjugate DSPE-PEG-FITC could coat antigen presenting cells in lymph nodes (LN) to prime FITC-CAR-T cells in vivo. To assess DSPE-PEG-FITC trafficking to the lymph node and retention and uptake by APCs, C57BIU6 mice received varying doses of DSPE-PEG-FITC. Specifically, inguinal LN, auxiliary LN and lilac LN were harvested 24 hours after administration of 2 nmol, 5 nmol, or 10 nmol doses of DSPE-PEG-FITC was into the tail-veil of the mice. Free FITC was used as control. Mice were sacrificed and LNs were removed at different time point for IVIS imaging (excitation 465 nm, emission 520 nm) to monitor LN retention of FITC signal.
While FITC signal was almost lost at the lowest dose (2 nmol) after 4 days, the signal was retained for more than 21 days at high dose (10 nmol) of DSPE-PEG-FITC (FIG. 3A). Free FITC signal was lost in 24 hours (FIG. 3A).

[2] = mouse, in vivo
Text: One concern was that repeated vaccination may elicit antibody against FITC when conjugated to DSPE-PEG, thus blocking its stimulation to CAR in lymph nodes.

## Nc1nc2c(ncn2[C@@H]2O[C@@H]3COP(=O)(O)O[C@H]4[C@@H](O)[C@H](n5cnc6c(=O)[nH]c(N)nc65)O[C@@H]4COP(=O)(O)O[C@H]3[C@H]2O)c(=O)[nH]1 [c-di-GMP, cyclic-di-GMP]
FITC-CAR-T
  proliferation of CAR-T cells in LN: Minimal proliferation

## fluorescein isothiocyanate [Free FITC]
[1]
  time in which FITC signal was lost in LN: ≤ 24 h

B1: FITC-OVA: FITC conjugated to the carrier protein OVA (conjugate, UniProt P01012 2-386, looked up)
Ovalbumin: GSIGAASMEFCFDVFKELKVHHANENIFYCPIAIMSALAMVYLGAKDSTRTQINKVVRFDKLPGFGDSIEAQCGTSVNVHSSLRDILNQITKPNDVYSFSLASRLYAEERYPILPEYLQCVKELYRGGLEPINFQTAADQARELINSWVESQTNGIIRNVLQPSSVDSQTAMVLVNAIVFKGLWEKAFKDEDTQAMPFRVTEQESKPVQMMYQIGLFRVASMASEKMKILELPFASGTMSMLVLLPDEVSGLEQLESIINFEKLTEWTSSNVMEERKIKVYLPRMKMEEKYNLTSVLMAMGITDVFSSSANLSGISSAESLKISQAVHAAHAEINEAGREVVGSAEAGVDAASVSEEFRADHPFLFCIKHIATNAVLFFGRCVSP
modifications: FITC
[2]
  antibody response against FITC: no antibody response was observed
